Laboratory results published in paper PMC7100886 (Cell Cycle, 2020).
Ends that are not written are not given here. * marks the point of attachment. Biotin = O=C1N[C@H]2[C@H](CS[C@H]2CCCCC(=O)*)N1

Columns and labels:
BT-549 cells = conditions: RAD51 inhibitor; cited from earlier work
c-Jun = c-Jun (Homo sapiens, UniProt P05412); conditions: cited from earlier work
[1] = biological target: His-tagged recombinant c-Jun (UniProt P05412 1-331); test: BLI
His-tagged recombinant c-Jun, sequence (P05412 whole entry): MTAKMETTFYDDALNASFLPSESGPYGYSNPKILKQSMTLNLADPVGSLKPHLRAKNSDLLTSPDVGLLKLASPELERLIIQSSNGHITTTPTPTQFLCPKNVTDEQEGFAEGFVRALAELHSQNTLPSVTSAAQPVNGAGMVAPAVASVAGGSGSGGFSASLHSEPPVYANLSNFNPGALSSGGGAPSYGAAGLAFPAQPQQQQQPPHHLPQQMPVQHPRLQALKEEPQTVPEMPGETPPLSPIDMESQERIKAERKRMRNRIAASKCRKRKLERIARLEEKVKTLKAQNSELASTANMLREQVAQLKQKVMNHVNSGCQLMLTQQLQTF

c-Jun, sequence (P05412 whole entry): as above

## O=C1C(Cl)=C(N2CCOCC2)C(=O)N1c1ccc(Cl)c(Cl)c1 [RI-1]
BT-549 cells
  effect on efficiency of double stranded DNA break repair: little to no effect

## CC[C@]1(O)C[C@@H]2CN(CCc3c([nH]c4ccccc34)[C@@](C(=O)OC)(c3cc4c(cc3OC)N(C)[C@H]3[C@@](O)(C(=O)OC)[C@H](OC(C)=O)[C@]5(CC)C=CCN6CC[C@]43[C@@H]65)C2)C1 [Vinblastine]
c-Jun
  p21: decrease in p21
  phosphorylated c-Jun: increasing phosphorylated c-Jun

B1: CAPER Peptide HCC1.4 (peptide)
peptide: Biotin-YGRKKRRQRRRRLQLMARLAEGTGLQIPPAAQQALQMSGSLAFGAVAEFSFVIDLQ
[1]
  Kd: 25.6 nM

B2: CAPER Peptide HCC1.3 (peptide)
peptide: Biotin-YGRKKRRQRRRRLQLMARLAEGTGLQIPPAAQQALQMSGSLAFGAVADLQTRLSQQ
[1]
  Kd: 8.89 nM
